# Test results from PubChem BioAssay AID1745844 (Carcinogenic Potency Database (CPDB), 2022).
# The source made the active and inactive calls. The rule behind the calls is not given here.
# Tested on: rodent lifetime carcinogenesis bioassay, tumor incidence TD50
# Experiment: carcinogenic potency in animals, long-term in vivo studies, CPDB compilation (AID 1745844)
# Conditions: for TD50: by gavage, dosed 103 weeks; for carcinogen call: hamster, strain Syrian Golden, inhaled, lesion: one or several types, types not named, dosed 52 weeks, study length 81 weeks
# [1] = rat, strain Fischer 344, males, site: any site (literature study), lesion: several types, types named in the paper, study length 105 weeks
smiles,measurement,setting,value
BrC(Br)Br,TD50,"mouse, strain B6C3F1, females, site: liver + spleen, lesion: hemangiosarcoma, study length 106 weeks",1110 mg/kg/day (inactive)
same,TD50,"mouse, strain B6C3F1, females, site: liver, lesion: hepatocellular adenoma + hepatocellular carcinoma + neoplastic nodule, study length 106 weeks",570 mg/kg/day
same,TD50,"mouse, strain B6C3F1, males, site: any site (literature study), lesion: several types, types named in the paper, study length 106 weeks",41 mg/kg/day
same,TD50,"mouse, strain B6C3F1, males, site: liver, lesion: hepatocellular adenoma + hepatocellular carcinoma + neoplastic nodule, study length 106 weeks",53.6 mg/kg/day
same,TD50,"mouse, strain B6C3F1, males, site: lung, lesion: alveolar/bronchiolar adenoma + alveolar/bronchiolar carcinoma, study length 106 weeks",2450 mg/kg/day
same,TD50,"mouse, strain B6C3F1, males, site: subcutaneous tissue, lesion: fibrosarcoma + sarcoma, study length 106 weeks",81.9 mg/kg/day (inactive)
same,TD50,"rat, strain Fischer 344, females, site: large intestine, lesion: adenocarcinoma + polypoid adenoma, study length 106 weeks",469 mg/kg/day
same,TD50,"rat, strain Fischer 344, females, site: large intestine, lesion: polypoid adenoma, study length 106 weeks",632 mg/kg/day
same,TD50,"rat, strain Fischer 344, females, site: liver, lesion: hepatocellular adenoma + hepatocellular carcinoma + neoplastic nodule, study length 106 weeks",676 mg/kg/day
same,TD50,[1],513 mg/kg/day
same,TD50,"rat, strain Fischer 344, males, site: large intestine, lesion: adenocarcinoma + polypoid adenoma, study length 105 weeks",1050 mg/kg/day
same,TD50,"rat, strain Fischer 344, males, site: testis, lesion: interstitial-cell adenoma, bilateral + interstitial-cell adenoma, study length 105 weeks",75 mg/kg/day
same,TD50,"rat, strain Fischer 344, males, site: thyroid gland, lesion: follicular-cell carcinoma, study length 105 weeks",656 mg/kg/day
O=Cc1ccco1,carcinogen call,"females, site: liver",negative (inactive)
same,carcinogen call,"females, site: lung",negative (inactive)
same,carcinogen call,"males, site: liver",negative (inactive)
same,carcinogen call,"males, site: lung",negative (inactive)
same,TD50,"mouse, strain B6C3F1, females, site: forestomach, lesion: squamous-cell papilloma, study length 104 weeks",920 mg/kg/day
same,TD50,"mouse, strain B6C3F1, females, site: liver, lesion: hepatocellular adenoma + hepatocellular carcinoma + neoplastic nodule, study length 104 weeks",377 mg/kg/day
same,TD50,"mouse, strain B6C3F1, females, site: liver, lesion: hepatocellular adenoma + hepatocellular carcinoma, study length 104 weeks",377 mg/kg/day
same,TD50,"mouse, strain B6C3F1, females, site: liver, lesion: hepatocellular adenoma, study length 104 weeks",364 mg/kg/day
same,TD50,"mouse, strain B6C3F1, males, site: any site (literature study), lesion: several types, types named in the paper, study length 104 weeks",165 mg/kg/day
same,TD50,"mouse, strain B6C3F1, males, site: kidney cortex, lesion: adenoma + carcinoma, study length 104 weeks",1400 mg/kg/day
same,TD50,"mouse, strain B6C3F1, males, site: liver, lesion: hepatocellular adenoma + hepatocellular carcinoma + neoplastic nodule, study length 104 weeks",135 mg/kg/day
same,TD50,"mouse, strain B6C3F1, males, site: liver, lesion: hepatocellular adenoma + hepatocellular carcinoma, study length 104 weeks",135 mg/kg/day
same,TD50,"mouse, strain B6C3F1, males, site: liver, lesion: hepatocellular adenoma, study length 104 weeks",207 mg/kg/day
same,TD50,"mouse, strain B6C3F1, males, site: liver, lesion: hepatocellular carcinoma, study length 104 weeks",219 mg/kg/day
same,TD50,"mouse, strain B6C3F1, males, site: lung, lesion: alveolar/bronchiolar adenoma + alveolar/bronchiolar carcinoma, study length 104 weeks",662 mg/kg/day
same,TD50,"mouse, strain B6C3F1, males, site: subcutaneous tissue, lesion: fibrosarcoma + fibroma + sarcoma, study length 104 weeks",169 mg/kg/day
same,TD50,"mouse, strain B6C3F1, males, site: subcutaneous tissue, lesion: fibrosarcoma + fibroma, study length 104 weeks",190 mg/kg/day
same,TD50,"mouse, strain B6C3F1, males, site: subcutaneous tissue, lesion: fibrosarcoma + sarcoma, study length 104 weeks",187 mg/kg/day
same,TD50,"mouse, strain B6C3F1, males, site: subcutaneous tissue, lesion: fibrosarcoma, study length 104 weeks",212 mg/kg/day
same,TD50,"rat, strain Fischer 344, females, site: any site (literature study), lesion: several types, types named in the paper, study length 105 weeks",194 mg/kg/day (inactive)
same,TD50,[1],150 mg/kg/day
same,TD50,"rat, strain Fischer 344, males, site: liver, lesion: cholangiocarcinoma, study length 105 weeks",683 mg/kg/day
